# Tests used:
# [1] = test system: carbapenem-resistant A. baumannii (CRAB) isolates (n = 67); assay: MIC, broth microdilution (EUCAST), carbapenem-resistant A. baumannii isolates; type: cell-based, Acinetobacter baumannii; conditions: ETZ fixed 8 mg/L in combinations; for MIC: Acinetobacter baumannii
# Source text: (§1) The bacterial strains used in this study comprised 208 clinical isolates from the Spanish National Acinetobacter spp. 2020 Multicenter Collection, which was previously characterized in detail by our research group, including whole-genome sequencing, phylogenetics studies, clonal dynamics, and resistance mechanisms ([2], [29]). Additionally, a collection of A. baumannii ATCC 17978 transformants coding the blaOXA-23, blaOXA-24/40, blaOXA-51, blaOXA-58, blaOXA-143, and blaOXA-201 genes, previously constructed and described by our group ([30]), was used to determine the activity of enmetazobactam against strains carrying the main CHDLs of A. baumannii.
# (§2) The antimicrobial susceptibility of the 208 Acinetobacter spp. isolates was assessed using the broth microdilution method, as described in the European Committee on Antimicrobial Susceptibility Testing (EUCAST) v.15 guidelines (http://www.eucast.org/clinical_breakpoints). […] MICs for enmetazobactam alone were assessed as well. […] Subsequently, MIC testing was also conducted with a collection of A. baumannii ATCC 17978 transformants expressing clinically relevant OXA-like carbapenemase genes.
# (§3) The A. baumannii ATCC 19606 strain was used as the reference strain in all susceptibility experiments, in duplicate assays. Antibiotics were purchased from Sigma-Aldrich, except enmetazobactam and durlobactam, which were obtained from Advanz Pharma and MedChemExpress, respectively.
# [2] = test system: carbapenem-susceptible A. baumannii isolates (n = 54); assay: MIC, broth microdilution (EUCAST), carbapenem-susceptible A. baumannii isolates; type: cell-based, Acinetobacter baumannii; conditions: for MIC: in combinations ETZ fixed at 8 mg/L
# Source text: as §1, §2, §3
# [3] = Acinetobacter baumannii, carbapenem-susceptible A. baumannii isolates (n = 54), ETZ fixed 8 mg/L in combinations
# [4] = […], ETZ fixed 8 mg/L in combinations
smiles,measurement,setting,value
CO/N=C(\C(=O)N[C@@H]1C(=O)N2C(C(=O)[O-])=C(C[N+]3(C)CCCC3)CS[C@H]12)c1csc(N)n1 [cefepime],MIC,"[1]; isolate Ab56, ST 1, ADC-75, OXA-69, OXA-23",32 mg/L
same,MIC,"[1]; isolate Ab83, ST 25, ADC-5, OXA-64, OXA-23",64 mg/L
same,MIC,"[1]; isolate Ab109, ST 1, ADC-75, OXA-69, OXA-23",64 mg/L
same,MIC,"[1]; isolate Ab133, ST 2, ADC-30, OXA-66, OXA-58, TEM-12",32 mg/L
same,MIC,"[1]; isolate Ab134, ST 2, ADC-30, OXA-66, OXA-58, TEM-12",16 mg/L
same,MIC,"[1]; isolate Ab137, ST 85, ADC-2, OXA-94, OXA-23",64 mg/L
same,MIC,"[1]; isolate Ab138, ST 745, ADC-30, OXA-66, OXA-58",32 mg/L
same,MIC,"[1]; isolate Ab140, ST 85, ADC-2, OXA-94, OXA-23",32 mg/L
same,MIC,"[1]; isolate Ab141, ST 745, ADC-30, OXA-66, OXA-58",32 mg/L
same,MIC,"[1]; isolate Ab144, ST 745, ADC-30, OXA-66, OXA-58",32 mg/L
same,MIC,"[1]; isolate Ab169, ST 2, ADC-30, OXA-66, OXA-23",32 mg/L
same,MIC,"[1]; isolate Ab171, ST 2, ADC-30, OXA-66, OXA-23",32 mg/L
same,MIC,"[1]; isolate Ab173, ST 2, ISAba1-ADC-30, OXA-66, OXA-23",≥ 128 mg/L
same,MIC,"[1]; isolate Ab174, ST 2, ADC-30, OXA-66, OXA-23",32 mg/L
same,MIC,"[1]; isolate Ab179, ST 2, ADC-30, OXA-66, OXA-23",64 mg/L
same,MIC,"[1]; isolate Ab180, ST 2, ADC-30, OXA-66, OXA-24/40",16 mg/L
same,MIC,"[1]; isolate Ab181, ST 2, ADC-30, OXA-66, OXA-23",32 mg/L
same,MIC,"[1]; isolate Ab182, ST 2, ADC-30, OXA-66, OXA-23",16 mg/L
same,MIC,"[1]; isolate Ab183, ST 2, ADC-30, OXA-66, OXA-23",32 mg/L
same,MIC,"[1]; isolate Ab184, ST 2, ADC-30, OXA-66, OXA-23",≥ 128 mg/L
same,MIC,"[1]; isolate Ab186, ST 2, ADC-30, OXA-66, OXA-23",32 mg/L
same,MIC,"[1]; isolate Ab191, ST 2, ADC-30, OXA-66, OXA-23",32 mg/L
same,MIC,"[1]; isolate Ab192, ST 2, ADC-30, OXA-66, OXA-23",32 mg/L
same,MIC,"[1]; isolate Ab194, ST 2, ADC-30, OXA-66, OXA-23",32 mg/L
same,MIC,"[1]; isolate Ab199, ST 2, ADC-30, OXA-66, OXA-23",32 mg/L
same,MIC,"[1]; isolate Ab201, ST 2, ADC-30, OXA-66, OXA-23",64 mg/L
same,MIC,"[1]; isolate Ab204, ST 2, ADC-30, OXA-66, OXA-23",16 mg/L
same,MIC distribution 0.12,[1]; cumulative share of CRAB isolates (n = 67) at MIC 0.12 mg/L,0
same,MIC distribution 0.25,[1]; cumulative share of CRAB isolates (n = 67) at MIC 0.25 mg/L,0
same,MIC distribution 0.5,[1]; cumulative share of CRAB isolates (n = 67) at MIC 0.5 mg/L,0
same,MIC distribution 1,[1]; cumulative share of CRAB isolates (n = 67) at MIC 1 mg/L,0
same,MIC distribution 2,[1]; cumulative share of CRAB isolates (n = 67) at MIC 2 mg/L,0
same,MIC distribution 4,[1]; cumulative share of CRAB isolates (n = 67) at MIC 4 mg/L,1.5
same,MIC distribution 8,[1]; cumulative share of CRAB isolates (n = 67) at MIC 8 mg/L,3.0
same,MIC distribution 16,[1]; cumulative share of CRAB isolates (n = 67) at MIC 16 mg/L,22.4
same,MIC distribution 32,[1]; cumulative share of CRAB isolates (n = 67) at MIC 32 mg/L,70.1
same,MIC distribution 64,[1]; cumulative share of CRAB isolates (n = 67) at MIC 64 mg/L,97.0
same,MIC distribution 0.12,[2],0
same,MIC,"[2]; Acinetobacter baumannii, isolate Ab1, ST 164, ADC-6, OXA-91",2 mg/L
same,MIC,"[2]; Acinetobacter baumannii, isolate Ab11, ST 239, ADC-2, OXA-51",2 mg/L
same,MIC,"[2]; Acinetobacter baumannii, isolate Ab34, ST 2182, ADC-2, OXA-130",2 mg/L
same,MIC,"[2]; Acinetobacter baumannii, isolate Ab38, ST 866, ADC-2, OXA-385",8 mg/L
same,MIC,"[2]; Acinetobacter baumannii, isolate Ab40, ST 2176, ADC-2, OXA-64",2 mg/L
same,MIC,"[2]; Acinetobacter baumannii, isolate Ab50, ST 2176, ADC-2, OXA-64",2 mg/L
same,MIC,"[2]; Acinetobacter baumannii, isolate Ab57, ST 1470, ADC-58, OXA-106",2 mg/L
same,MIC,"[2]; Acinetobacter baumannii, isolate Ab58, ST 6, ADC-2, OXA-94",4 mg/L
same,MIC,"[2]; Acinetobacter baumannii, isolate Ab61, ST 1639, ADC-7, OXA-64",1 mg/L
same,MIC,"[2]; Acinetobacter baumannii, isolate Ab62, ST 265, ADC-2, OXA-91",1 mg/L
same,MIC,"[2]; Acinetobacter baumannii, isolate Ab67, ST 1, ADC-11, OXA-69",2 mg/L
same,MIC,"[2]; Acinetobacter baumannii, isolate Ab79, ST 106, ADC-11, OXA-78",1 mg/L
same,MIC,"[2]; Acinetobacter baumannii, isolate Ab80, ST 2182, ADC-6, OXA-208",1 mg/L
same,MIC,"[2]; Acinetobacter baumannii, isolate Ab81, ST 25, ADC-79, OXA-64",2 mg/L
same,MIC,"[2]; Acinetobacter baumannii, isolate Ab93, ST 25, ADC-79, OXA-64",2 mg/L
same,MIC,"[2]; Acinetobacter baumannii, isolate Ab95, ST 582, ADC-5, OXA-317",2 mg/L
same,MIC,"[2]; Acinetobacter baumannii, isolate Ab96, ST 582, ADC-5, OXA-317",1 mg/L
same,MIC,"[2]; Acinetobacter baumannii, isolate Ab100, ST 145, ADC-58, OXA-343",2 mg/L
same,MIC,"[2]; Acinetobacter baumannii, isolate Ab110, ST 1623, ADC-3, OXA-70",8 mg/L
same,MIC,"[2]; Acinetobacter baumannii, isolate Ab112, ST 193, ADC-like, OXA-120",0.5 mg/L
same,MIC,"[2]; Acinetobacter baumannii, isolate Ab124, ST 2176, ADC-2, OXA-64",1 mg/L
same,MIC,"[2]; Acinetobacter baumannii, isolate Ab127, ST 2176, ADC-2, OXA-64",2 mg/L
same,MIC,"[2]; Acinetobacter baumannii, isolate Ab128, ST 2176, ADC-2, OXA-64",1 mg/L
same,MIC,"[2]; Acinetobacter baumannii, isolate Ab130, ST 32, ADC-79, OXA-100",4 mg/L
same,MIC,"[2]; Acinetobacter baumannii, isolate Ab131, ST 687, ADC-like, OXA-208",0.5 mg/L
same,MIC,"[2]; Acinetobacter baumannii, isolate Ab132, ST 1112, ADC-79, OXA-89",4 mg/L
same,MIC,"[2]; Acinetobacter baumannii, isolate Ab136, ST 2183, ADC-like, OXA-66",2 mg/L
same,MIC,"[2]; Acinetobacter baumannii, isolate Ab139, ST 54, ADC-like, OXA-365",2 mg/L
same,MIC,"[2]; Acinetobacter baumannii, isolate Ab142, ST 1, ADC-like, OXA-69",16 mg/L
same,MIC,"[2]; Acinetobacter baumannii, isolate Ab143, ST 1328, ADC-76, OXA-408",2 mg/L
same,MIC,"[2]; Acinetobacter baumannii, isolate Ab149, ST 1112, ADC-6, OXA-407",2 mg/L
same,MIC,"[2]; Acinetobacter baumannii, isolate Ab150, ST 2184, ADC-like, OXA-64",2 mg/L
same,MIC,"[2]; Acinetobacter baumannii, isolate Ab152, ST 132, ADC-2, OXA-120",2 mg/L
same,MIC,"[2]; Acinetobacter baumannii, isolate Ab158, ST 2034, ADC-2, OXA-217",0.5 mg/L
same,MIC,"[2]; Acinetobacter baumannii, isolate Ab163, ST 132, ADC-2, OXA-120",0.5 mg/L
same,MIC,"[2]; Acinetobacter baumannii, isolate Ab167, ST 1623, ADC-like, OXA-345",1 mg/L
same,MIC,"[2]; Acinetobacter baumannii, isolate Ab168, ST 1470, ADC-75, OXA-402",1 mg/L
same,MIC,"[2]; Acinetobacter baumannii, isolate Ab170, ST 2110, ADC-4, OXA-338",2 mg/L
same,MIC,"[2]; Acinetobacter baumannii, isolate Ab172, ST 2185, ADC-5, OXA-217",1 mg/L
same,MIC,"[2]; Acinetobacter baumannii, isolate Ab185, ST 2, ADC-26, OXA-66",4 mg/L
same,MIC,"[2]; Acinetobacter baumannii, isolate Ab187, ST 105, ADC-2, OXA-430",0.5 mg/L
same,MIC,"[2]; Acinetobacter baumannii, isolate Ab188, ST 203, ADC-6, OXA-217, PDC-1",0.5 mg/L
same,MIC,"[2]; Acinetobacter baumannii, isolate Ab189, ST 1405, ADC-3, OXA-120",1 mg/L
same,MIC,"[2]; Acinetobacter baumannii, isolate Ab190, ST 2186, ADC-6, OXA-413",1 mg/L
same,MIC,"[2]; Acinetobacter baumannii, isolate Ab193, ST 164, ADC-6, OXA-91",1 mg/L
same,MIC,"[2]; Acinetobacter baumannii, isolate Ab195, ST 1, ADC-11, OXA-69",2 mg/L
same,MIC,"[2]; Acinetobacter baumannii, isolate Ab200, ST 1336, ADC-2, OXA-51",2 mg/L
same,MIC,"[2]; Acinetobacter baumannii, isolate Ab202, ST 1, ADC-11, OXA-69",2 mg/L
same,MIC,"[2]; Acinetobacter baumannii, isolate Ab203, ST 221, ADC-6, OXA-88",1 mg/L
same,MIC,"[2]; Acinetobacter baumannii, isolate Ab206, ST 2187, ADC-58, OXA-69",1 mg/L
same,MIC,"[2]; Acinetobacter baumannii, isolate Ab209",1 mg/L
same,MIC,"[2]; Acinetobacter baumannii, isolate Ab213",1 mg/L
same,MIC,"[2]; Acinetobacter baumannii, isolate Ab218",2 mg/L
same,MIC,"[2]; Acinetobacter baumannii, isolate Ab220",0.5 mg/L
same,MIC50,[2]; [3],4 mg/L
same,MIC90,[2]; [3],8 mg/L
same,MIC distribution 0.25,[2]; [4],0
same,MIC distribution 0.5,[2]; [4],0
same,MIC distribution 1,[2]; [4],13.0
same,MIC distribution 2,[2]; [4],44.4
same,MIC distribution 4,[2]; [4],87.0
same,MIC distribution 8,[2]; [4],94.4
same,MIC distribution 16,[2]; [4],98.1
same,MIC distribution ≤0.06,[2]; [4],0
same,MIC distribution ≥32,[2]; [4],100

# — article PMC12888861, “Antibacterial activity of enmetazobactam against Acinetobacter spp.: a molecular dissection of mechanism of action and resistance determinants” (Antimicrobial Agents and Chemotherapy, 2025)
